In the SangsterLogP compilation:

Experiment: method code SF-AS, from DOI: 10.1016/0009-2797(77)90026-6

Row | SMILES | logP
1 | CCN(CC)C(=O)N(C)N=O | 1.11
2 | CN(CC(C)(C)C)N=O | 1.34
3 | O=NN1CCC(O)CC1 | -0.89
4 | O=NN1CCCC1 | -0.19
5 | O=NN1CCCN(N=O)CC1 | -0.51
6 | O=NN1CCCC(O)C1 (configuration not stated) | -0.47
7 | O=NN1CCC(Br)C(Br)C1 (configuration not stated) | 1.23
8 | O=NN(CC(F)(F)F)CC(F)(F)F | 2.15
9 | O=NN1CCNCC1 | 0.18
10 | CC1CN(N=O)CC(C)O1 (configuration not stated) | 0.32
11 | CC1C(c2ccccc2)OCCN1N=O (configuration not stated) | 2.09
12 | O=NN1CCCCC1 | 0.63
13 | CC1CN(N=O)CC(C)N1 (configuration not stated) | 0.73
14 | CC1(C)CCCC(C)(C)N1N=O | 2.49
15 | CC1CCCN(N=O)C1 (configuration not stated) | 0.99
16 | CCCCCCCCCCCCN(C)N=O | 2.18
17 | COCCN(CCOC)N=O | -0.38
18 | CC1CCN(N=O)CC1 | 1.05
19 | O=NN1CCCCCCC1 | 1.48
20 | O=NN1CCN(N=O)CC1 | -0.85
21 | O=NN1CCC(=O)CC1 | -0.47
22 | CC1CN(N=O)CC(C)N1N=O (configuration not stated) | 0.08
23 | O=NN1CCCCCC1 | 0.92
24 | O=NN1CCC(Cl)C(Cl)C1 (configuration not stated) | 1.04

Row | SMILES | logP
25 | CN1CCN(N=O)CC1 | 0.2
26 | CCN(CC)C(=O)N(CC)N=O | 1.54
27 | O=NN1CC=CCC1 | 1.18
28 | N#CCCN(CCC#N)N=O | 0.08
29 | N#CCN(CC#N)N=O | 0.04
30 | CC1CC(C)CN(N=O)C1 (configuration not stated) | 1.53
31 | CC1CCC(C)N1N=O (configuration not stated) | 0.86
32 | CC1CN(C(=O)c2ccccc2)CC(C)N1N=O (configuration not stated) | 1.04
33 | CC(C)(C)C1CCN(N=O)CC1 | 2.54
34 | CCN(N=O)C(=O)N(C)C | 0.71
35 | O=NN1CCCCCCCC1 | 2.04
36 | CCOCCN(CCOCC)N=O | 0.79
37 | CC1C(C)N(N=O)C(C)C(C)N1N=O (configuration not stated) | 0.91
38 | CC1CN(N=O)C(C)CN1N=O (configuration not stated) | 0.15
39 | CC1CCCC(C)N1N=O (configuration not stated) | 1.36
40 | CC1CCCCN1N=O (configuration not stated) | 0.71
41 | O=NN1CC=CC1 | 0.26
42 | CC1CN(N=O)CC(C)N1C(=O)c1ccccc1 (configuration not stated) | 1.41
43 | CC1CN(N=O)CCN1N=O (configuration not stated) | -0.28
44 | CN(N=O)C1CCCCC1 | 1.43
45 | O=NN1CCC(c2ccccc2)CC1 | 2.59
46 | CN(C)C(=O)N(C)N=O | 0.36
47 | O=NN1CCSCC1 | 0.4
